Laboratory results taken from ChEMBL document CHEMBL4251612, “Naturally occurring Diels-Alder-type adducts from Morus nigra as potent inhibitors of Mycobacterium tuberculosis protein tyrosine phosphatase B” (Eur J Med Chem, 2018).
≈ marks a conversion by molar mass, not a printed value. Calls of active or inactive are those of the source. The rule behind the calls is not given here.

Columns and labels:
[1] = biological target: T1, Phosphotyrosine protein phosphatase (Mycobacterium tuberculosis, UniProt A0A045ISB3); experiment: Inhibition of Mycobacterium tuberculosis PtpB using p-nitrophenyl phosphate as substrate preincubated for 10 mins followed by substrate addition measured every minute for 10 mins by UV-VIS spectrophotometric analysis
T1 sequence (A0A045ISB3 whole entry): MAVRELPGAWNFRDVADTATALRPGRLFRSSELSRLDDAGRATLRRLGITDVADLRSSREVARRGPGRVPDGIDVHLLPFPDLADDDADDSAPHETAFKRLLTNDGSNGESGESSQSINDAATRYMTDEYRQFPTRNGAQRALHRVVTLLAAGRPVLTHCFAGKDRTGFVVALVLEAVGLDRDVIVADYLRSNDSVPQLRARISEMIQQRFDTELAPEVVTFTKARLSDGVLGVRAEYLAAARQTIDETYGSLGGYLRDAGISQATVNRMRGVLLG

[2] = biological target: T2, Low molecular weight protein-tyrosine phosphatase A (Mycobacterium tuberculosis, UniProt P9WIA1); experiment: Inhibition of Mycobacterium tuberculosis PtpA using p-nitrophenyl phosphate as substrate preincubated for 10 mins followed by substrate addition measured every minute for 10 mins by UV-VIS spectrophotometric analysis
T2 sequence (P9WIA1 whole entry): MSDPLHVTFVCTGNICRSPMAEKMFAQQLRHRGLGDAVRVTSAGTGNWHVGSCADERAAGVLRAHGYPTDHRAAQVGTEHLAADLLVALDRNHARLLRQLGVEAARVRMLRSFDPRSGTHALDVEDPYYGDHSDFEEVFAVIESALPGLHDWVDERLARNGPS

[3] = biological target: T3, Tyrosine-protein phosphatase non-receptor type 1 (Homo sapiens, UniProt P18031); experiment: Inhibition of human PTP1B using p-nitrophenyl phosphate as substrate preincubated for 10 mins followed by substrate addition measured every minute for 10 mins by UV-VIS spectrophotometric analysis
T3 sequence (P18031 whole entry): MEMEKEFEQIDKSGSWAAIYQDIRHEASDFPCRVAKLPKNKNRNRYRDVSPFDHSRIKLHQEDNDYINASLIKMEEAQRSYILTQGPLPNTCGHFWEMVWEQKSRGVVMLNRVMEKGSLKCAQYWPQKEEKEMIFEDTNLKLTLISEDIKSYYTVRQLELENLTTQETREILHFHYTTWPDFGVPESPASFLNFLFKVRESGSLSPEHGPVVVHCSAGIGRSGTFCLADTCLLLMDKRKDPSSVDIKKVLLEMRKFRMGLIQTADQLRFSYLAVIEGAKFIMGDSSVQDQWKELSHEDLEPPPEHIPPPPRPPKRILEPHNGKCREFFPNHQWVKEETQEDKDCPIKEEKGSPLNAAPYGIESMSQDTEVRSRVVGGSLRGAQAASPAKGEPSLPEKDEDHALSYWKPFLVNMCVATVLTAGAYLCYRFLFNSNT

[4] = biological target: T4, Tyrosine-protein phosphatase non-receptor type 22 (Homo sapiens, UniProt Q9Y2R2); experiment: Inhibition of LYP (unknown origin) using p-nitrophenyl phosphate as substrate preincubated for 10 mins followed by substrate addition measured every minute for 10 mins by UV-VIS spectrophotometric analysis
T4 sequence (Q9Y2R2 whole entry): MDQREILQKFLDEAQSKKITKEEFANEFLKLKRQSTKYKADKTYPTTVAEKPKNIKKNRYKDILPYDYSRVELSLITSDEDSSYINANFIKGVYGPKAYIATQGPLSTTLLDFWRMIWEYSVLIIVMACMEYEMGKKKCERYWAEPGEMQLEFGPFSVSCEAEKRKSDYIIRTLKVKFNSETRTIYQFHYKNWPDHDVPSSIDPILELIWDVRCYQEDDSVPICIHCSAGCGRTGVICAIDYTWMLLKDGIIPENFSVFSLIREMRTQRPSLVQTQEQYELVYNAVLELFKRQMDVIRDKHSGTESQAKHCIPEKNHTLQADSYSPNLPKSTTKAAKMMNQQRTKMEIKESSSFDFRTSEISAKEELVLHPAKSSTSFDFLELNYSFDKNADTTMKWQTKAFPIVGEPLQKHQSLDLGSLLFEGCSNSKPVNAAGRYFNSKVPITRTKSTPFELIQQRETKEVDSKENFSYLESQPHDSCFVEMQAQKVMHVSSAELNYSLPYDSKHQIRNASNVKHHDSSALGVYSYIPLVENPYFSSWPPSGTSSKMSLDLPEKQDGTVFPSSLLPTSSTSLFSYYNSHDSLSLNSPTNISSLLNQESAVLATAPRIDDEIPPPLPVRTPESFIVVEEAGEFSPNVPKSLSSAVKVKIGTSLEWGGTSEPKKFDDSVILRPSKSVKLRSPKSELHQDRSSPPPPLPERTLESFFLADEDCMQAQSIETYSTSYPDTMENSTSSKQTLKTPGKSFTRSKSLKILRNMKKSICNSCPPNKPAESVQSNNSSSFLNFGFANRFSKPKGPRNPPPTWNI

[5] = biological target: T5, Tyrosine-protein phosphatase non-receptor type 12 (Homo sapiens, UniProt Q05209); experiment: Inhibition of PTP-PEST (unknown origin) using p-nitrophenyl phosphate as substrate preincubated for 10 mins followed by substrate addition measured every minute for 10 mins by UV-VIS spectrophotometric analysis
T5 sequence (Q05209 whole entry): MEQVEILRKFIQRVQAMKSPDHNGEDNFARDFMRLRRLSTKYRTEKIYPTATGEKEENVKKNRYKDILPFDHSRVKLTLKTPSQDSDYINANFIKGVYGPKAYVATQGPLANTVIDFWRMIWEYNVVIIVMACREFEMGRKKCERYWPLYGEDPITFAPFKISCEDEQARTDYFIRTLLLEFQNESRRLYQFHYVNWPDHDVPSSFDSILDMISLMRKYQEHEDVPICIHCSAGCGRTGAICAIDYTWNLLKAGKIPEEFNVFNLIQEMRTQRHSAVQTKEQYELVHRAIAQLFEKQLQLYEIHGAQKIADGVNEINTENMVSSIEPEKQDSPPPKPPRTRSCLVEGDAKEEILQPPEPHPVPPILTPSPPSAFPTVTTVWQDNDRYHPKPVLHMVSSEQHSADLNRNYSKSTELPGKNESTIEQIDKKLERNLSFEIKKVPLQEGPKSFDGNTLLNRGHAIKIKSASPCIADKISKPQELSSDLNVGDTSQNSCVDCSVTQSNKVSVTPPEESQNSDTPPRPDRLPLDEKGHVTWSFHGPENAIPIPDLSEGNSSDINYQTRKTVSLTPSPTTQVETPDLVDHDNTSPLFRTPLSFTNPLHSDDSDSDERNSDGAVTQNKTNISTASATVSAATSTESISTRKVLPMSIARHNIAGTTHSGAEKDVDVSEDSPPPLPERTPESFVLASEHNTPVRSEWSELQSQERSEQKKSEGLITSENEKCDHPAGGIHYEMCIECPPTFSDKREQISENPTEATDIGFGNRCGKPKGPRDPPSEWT

[6] = biological target: T6, Phosphotyrosine protein phosphatase (Mycobacterium tuberculosis) (UniProt A0A045ISB3); experiment: Non-competitive inhibition of Mycobacterium tuberculosis PtpB using p-nitrophenyl phosphate as substrate up to 0.3 uM preincubated for 10 mins followed by substrate addition measured every minute for 10 mins by Michaelis-Menten plot analysis
T6 sequence (whole entry): T1 sequence (A0A045ISB3 whole entry)

[7] = biological target: T1, Phosphotyrosine protein phosphatase; experiment: Inhibition of Mycobacterium tuberculosis PtpB using p-nitrophenyl phosphate as substrate preincubated for 10 mins followed by substrate addition measured every minute for 10 mins by Michaelis-Menten plot analysis
[8] = biological target: T6, Phosphotyrosine protein phosphatase (Mycobacterium tuberculosis); experiment: Reversible inhibition of Mycobacterium tuberculosis PtpB using p-nitrophenyl phosphate as substrate assessed as enzyme recovery at 10 times IC50 preincubated for 10 mins followed by 100-fold dilution; parameters: scale not given: the % may be the effect or the level left
[9] = biological target: T3, Tyrosine-protein phosphatase non-receptor type 1; experiment: Non-competitive inhibition of human PTP1B using p-nitrophenyl phosphate as substrate up to 7 uM preincubated for 10 mins followed by substrate addition measured every minute for 10 mins by Michaelis-Menten plot analysis
[10] = Selectivity index, ratio of Ki for human PTP1B to Ki for Mycobacterium tuberculosis PtpB
[11] = biological target: T6, Phosphotyrosine protein phosphatase (Mycobacterium tuberculosis); experiment: Binding affinity to Mycobacterium tuberculosis PtpB assessed as Stern-Volmer quenching constant by UV-VIS spectrophotometric analysis
[12] = biological target: T1, Phosphotyrosine protein phosphatase; experiment: Binding affinity to Mycobacterium tuberculosis PtpB by UV-VIS spectrophotometric analysis
[13] = tested on: Mycobacterium tuberculosis; experiment: Antitubercular activity against Mycobacterium tuberculosis H37Ra ATCC 25177 after 7 days by resazurin microtiter assay; format: functional; conditions: H37Ra ATCC 25177, 168 h
[14] = Cytotoxicity against human THP1 cells after 72 hrs by MTT assay; format: cell-based; conditions: THP-1 cells
[15] = tested on: Mycobacterium tuberculosis; experiment: Antitubercular activity against Mycobacterium tuberculosis H37Ra ATCC 25177 infected in human THP1 cells assessed as reduction in CFU at 14.4 uM after 72 hrs relative to control; format: functional; conditions: H37Ra ATCC 25177, THP-1, 72 h, read-out: GI
[16] = biological target: T6, Phosphotyrosine protein phosphatase (Mycobacterium tuberculosis); experiment: Time independent inhibition of Mycobacterium tuberculosis PtpB at 0.2 uM pre-incubated for 0 to 10 mins before p-nitrophenyl phosphate substrate addition
[17] = biological target: T6, Phosphotyrosine protein phosphatase (Mycobacterium tuberculosis); experiment: Binding affinity to Mycobacterium tuberculosis PtpB assessed as fluorescence quenching at 0.1 to 4.7 uM by spectropolarimetry
[18] = biological target: T6, Phosphotyrosine protein phosphatase (Mycobacterium tuberculosis); experiment: Binding affinity to Mycobacterium tuberculosis PtpB assessed as binding constant by fluorescence based assay
[19] = biological target: T1, Phosphotyrosine protein phosphatase; experiment: Binding affinity to Mycobacterium tuberculosis PtpB by fluorescence based assay
[20] = biological target: T1, Phosphotyrosine protein phosphatase; experiment: Binding affinity to Mycobacterium tuberculosis PtpB by ITC method
[21] = biological target: T6, Phosphotyrosine protein phosphatase (Mycobacterium tuberculosis); experiment: Ratio of Kd for binding affinity to Mycobacterium tuberculosis PtpB by fluorescence based assay to Kd for binding affinity to Mycobacterium tuberculosis PtpB by ITC method
[22] = biological target: T6, Phosphotyrosine protein phosphatase (Mycobacterium tuberculosis); experiment: Binding affinity to Mycobacterium tuberculosis PtpB assessed as sequence coverage level at 100 uM preincubated for 10 mins before trypsin addition by mass spectrometry based peptide mass fingerprint assay (reference value: 92%)
[23] = biological target: T6, Phosphotyrosine protein phosphatase (Mycobacterium tuberculosis); experiment: Binding affinity to Mycobacterium tuberculosis PtpB assessed as protection against proteolytic cleavage at 100 to 400 uM preincubated for 10 mins before trypsin addition by mass spectrometry
[24] = biological target: T7, Tyrosine-protein phosphatase non-receptor type 1 (Homo sapiens) (UniProt P18031); experiment: Binding affinity to human PTP1B assessed as protection against proteolytic cleavage at 400 uM preincubated for 10 mins before trypsin addition and measured after 2 hrs by mass spectrometry
T7 sequence (whole entry): T3 sequence (P18031 whole entry)

[25] = biological target: T6, Phosphotyrosine protein phosphatase (Mycobacterium tuberculosis); experiment: Binding affinity to Mycobacterium tuberculosis PtpB assessed as binding constant by ITC method

Compound	IC50 [1] [µM]	IC50 [2] [µM]	IC50 [3] [µM]	IC50 [4] [µM]	IC50 [5] [µM]	also measured
CC1=C[C@@H](c2c(O)ccc([C@@H]3CC(=O)c4c(O)cc(O)cc4O3)c2O)[C@H](C(=O)c2ccc(O)cc2O)[C@@H](c2ccc(O)cc2O)C1	4.7	14	7.98	12.1	18.6	–
CC(C)=CCc1c(O)ccc(C(=O)[C@H]2[C@@H](c3c(O)cc(-c4cc5ccc(O)cc5o4)cc3O)C=C(C)C[C@@H]2c2ccc(O)cc2O)c1O [CHALCOMORACIN]	1.43	2.43	1.94	7.29	8.52	–
CC(C)=CCc1c(O)ccc(C(=O)[C@H]2[C@@H](c3c(O)cc(/C=C/c4ccc(O)cc4O)cc3O)C=C(C)C[C@@H]2c2ccc(O)cc2O)c1O	1.9	–	–	–	–	Ki [1]: 1.6 µM
CC(C)=CCc1c(O)cc2c(c1O)C(=O)C[C@@H](c1cc3c(cc1O)OC(C)(C)C=C3)O2 [CUDRAFLAVANONE A]	5.07	2.74	4.31	9.54	18.6	–
CC(C)=CCc1c(-c2ccc(O)cc2O)oc2c([C@@H]3C=C(C)C[C@H](c4ccc(O)cc4O)[C@H]3C(=O)c3ccc(O)cc3O)c(O)cc(O)c2c1=O	0.83	5.89	4.56	18.5	12.4	inhibition [6]: Active; Ki [7]: 0.39 µM; Activity [8]: 40%; Ki [9]: 0.2 µM; Ratio Ki [10]: 26; Ka [11]: 1 ×10⁶ /M; Kd [12]: 1 µM; MIC [13]: 32 µg/mL (≈ 46.2 µM); CC50 at 72 h [14]: 33.8 µg/mL (≈ 48.8 µM); inhibition of growth at 14.4 µM [15]: 61.3%; inhibition [16]: Active; Activity [17]: Active; Ka [18]: 1.4 ×10⁶ /M; Kd [19]: 0.7 µM; Kd [20]: 2.9 µM; Ratio [21]: 2; Activity [22]: 90%; Activity [23]: Active; Activity [24]: inactive; Ka [25]: 3.5 ×10⁵ /M
